In general, EC50 refers to the concentration giving half of the maximal effect.

Here are results for 13 molecules from US20110034526A1, “Benzimidazole Compounds” (Wyeth LLC, priority 2007, published 2011).

The test system of this test is ABCA1 gene. Put plainly: Quantitative analysis of ABCA1 gene regulation in THP-1 cells (real-time PCR). It counts as cell-based, human. To be noted: Gene regulation by LXR (Human); differentiated THP-1 cells, 18 hrs, ABCA1 mRNA; read-out: EC50 ABCA1. The procedure:
The compounds of formula (I) effect on the regulation of the ABCA1 gene was evaluated using the following procedure.
The THP-1 monocytic cell line (ATCC # TIB-202) was obtained from American Type Culture Collection (Manassas, Va.) and cultured in RPMI 1640 medium (Gibco, Carlsbad, Calif.) containing 10% FBS, 2 mM L-glutamine, and 55 uM beta-Mercaptoethanol (BME). […] Differentiated THP-1 cells were treated with test compounds or ligands dissolved in DMSO (Sigma, D-8779) in culture medium lacking phorbal ester. […] Unstimulated cells treated with vehicle were included as negative controls on each plate. An LXR agonist reference, N-(2,2,2-trifluoro-ethyl)-N-[4-(2,2,2-trifluoro-1-hydroxy-1-trifluoromethyl-ethyl)-phenyl]-benzenesulfonamide (Schultz, Joshua R., Genes & Development (2000), 14(22), 2831-2838), was dosed at 1.0 uM and served as a positive control. […] Results of antagonist analysis are expressed as % antagonism and IC50 (in μM).
Total cellular RNA was isolated from treated cells cultured in 96-well plates using PrepStation 6100 (Applied Biosystems, Foster City, Calif.), according to the manufacturer's recommendations. RNA was resuspended in ribonuclease-free water and stored at −70° C. prior to analysis. RNA concentrations were quantitated with RiboGreen test procedure, #R-11490 (Molecular Probes, Eugene, Oreg.).
Gene-specific mRNA quantitation was performed by real-time PCR with the Perkin Elmer Corp. chemistry on an ABI Prism 7700 Sequence detection system (Applied Biosystems, Foster City, Calif.) according to the manufacturer's instructions. Samples (50-100 ng) of total RNA were assayed in duplicate or triplicate in 50 μl reactions using one-step RT-PCR and the standard curve method to estimate specific mRNA concentrations. Sequences of gene-specific primer and probe sets were designed with Primer Express Software (Applied Biosystems, Foster City, Calif.). […] RT and PCR reactions were performed according to PE Applied Biosystem's protocol for Taqman Gold RT-PCR or Qiagen's protocol for Quantitect probe RT-PCR. Relative levels of ABCA1 mRNA are normalized using GAPDH mRNA or 18S rRNA probe/primer sets purchased commercially (Applied Biosystems, Foster City, Calif.).
Mean, standard deviation and statistical significance of duplicate evaluations of RNA samples were assessed using ANOVA, one-way analysis of variance using SAS analysis.
In general terms: In qPCR the cycle at which signal appears reflects the starting amount.
Consider `CCS(=O)(=O)c1cccc(Oc2cccc(-n3c(C)nc4c(C(F)(F)F)cccc43)c2)c1` [Example 5, 1-{3-[3-(ethylsulfonyl)phenoxy]phenyl}-2-methyl-4-(trifluoromethyl)-1H-benzimidazole], for which the EC50 was 395 nM. For `Cc1nc2c(C(F)(F)F)cccc2n1-c1cccc(Oc2cccc(S(=O)(=O)C(C)C)c2)c1` [Example 6, 1-{3-[3-(isopropylsulfonyl)phenoxy]phenyl}-2-methyl-4-(trifluoromethyl)-1H-benzimidazole] the value was 710 nM; for `CCS(=O)(=O)c1cc(F)cc(Oc2cccc(-n3c(C)nc4c(C(F)(F)F)cccc43)c2)c1` [Example 7, 1-{3-[3-(ethylsulfonyl)-5-fluorophenoxy]phenyl}-2-methyl-4-(trifluoromethyl)-1H-benzimidazole], 1240 nM; for `Cc1nc2c(C(F)(F)F)cccc2n1-c1cccc(Oc2cc(F)cc(S(C)(=O)=O)c2)c1` [Example 8, 1-{3-[3-fluoro-5-(methylsulfonyl)phenoxy]phenyl}-2-methyl-4-(trifluoromethyl)-1H-benzimidazole], 430 nM. As for `Cc1nc2c(C(F)(F)F)cccc2n1-c1cccc(Oc2cccc(S(=O)(=O)CCCO)c2)c1` [Example 9, 3-[(3-{3-[2-methyl-4-(trifluoromethyl)-1H-benzimidazol-1-yl]phenoxy}-phenyl)sulfonyl]propan-1-ol], the figure is 610 nM. On to `CCCS(=O)(=O)c1cccc(Oc2cccc(-n3c(C)nc4c(C(F)(F)F)cccc43)c2)c1` [Example 10, 2-methyl-1-{3-[3-(propylsulfonyl)phenoxy]phenyl}-4-(trifluoromethyl)-1H-benzimidazole], for which the EC50 was 620 nM. For `CS(=O)(=O)c1cccc(Oc2cccc(-n3cnc4c(C(F)(F)F)cccc43)c2)c1` [Example 25, 1-{3-[3-(methylsulfonyl)phenoxy]phenyl}-4-(trifluoromethyl)-1H-benzimidazole] the value was 907 nM; for `CCc1nc2c(C(F)(F)F)cccc2n1-c1cccc(Oc2cccc(S(C)(=O)=O)c2)c1` [Example 26, 2-ethyl-1-{3-[3-(methylsulfonyl)phenoxy]phenyl}-4-(trifluoromethyl)-1H-benzimidazole], 140 nM; for `CS(=O)(=O)c1cccc(Oc2cccc(-n3c(-c4ccccc4)nc4c(C(F)(F)F)cccc43)c2)c1` [Example 30, 1-{3-[3-(methylsulfonyl)phenoxy]phenyl}-2-phenyl-4-(trifluoromethyl)-1H-benzimidazole], 160 nM.

For the molecule `CS(=O)(=O)c1cccc(Oc2cccc(-n3c(C4CC4)nc4c(C(F)(F)F)cccc43)c2)c1` [Example 31, 2-cyclopropyl-1-{3-[3-(methylsulfonyl)phenoxy]phenyl}-4-(trifluoromethyl)-1H-benzimidazole], the EC50 is 760 nM.

`Cc1nc2c(Cl)cccc2n1-c1cccc(Oc2cccc(S(C)(=O)=O)c2)c1` [Example 40, 4-chloro-2-methyl-1-{3-[3-(methylsulfonyl)phenoxy]phenyl}-1H-benzimidazole]: the EC50 was 315 nM. As for `CCS(=O)(=O)c1cccc(Oc2cccc(-n3c(C)nc4c(Cl)cccc43)c2)c1` [Example 41, 4-chloro-1-{3-[3-(ethylsulfonyl)phenoxy]phenyl}-2-methyl-1H-benzimidazole], the figure is 745 nM. As for `Cc1nc2c(Cl)cccc2n1-c1cccc(Oc2cccc(S(=O)(=O)C(F)(F)F)c2)c1` [Example 47, 4-chloro-2-methyl-1-(3-{3-[(trifluoromethyl)sulfonyl]phenoxy}phenyl)-1H-benzimidazole], the figure is 215 nM.
